Test results taken from the supplement of paper PMC10307832.

Experiments:
Test in all cases: relative viability (nuclei count vs DMSO), 5 days (fraction); higher = more cells survive
RU-SKI 43 + Phenformin = compound: CC[C@@H](C)CNCC(=O)N1CCC2=C([C@@H]1COC3=CC=CC(=C3)C)C=CS2 [RU-SKI 43] + N=C(N)NC(=N)NCCc1ccccc1 [Phenformin] (partner 250 µM)
In short: (§1)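 Relative viability is defined as nuclei in treated wells over nuclei in vehicle wells. Duplicate plates were run and medians reported. Lung cancer cell lines in 1536-well plates were dosed by pin tool one day after seeding, with one drug or with a fixed anchor-drug dose plus five library-drug doses (not always all listed) in √10 steps, and nuclei were counted after 5 days.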

Irinotecan + Trametinib = compound: CCc1c2c(nc3ccc(OC(=O)N4CCC(N5CCCCC5)CC4)cc13)-c1cc3c(c(=O)n1C2)COC(=O)[C@]3(O)CC [Irinotecan] + CC(=O)Nc1cccc(-n2c(=O)n(C3CC3)c(=O)c3c(Nc4ccc(I)cc4F)n(C)c(=O)c(C)c32)c1 [Trametinib] (partner 0.02 µM)
In short: as §1

RU-SKI 43 + Navitoclax = compound: CC[C@@H](C)CNCC(=O)N1CCC2=C([C@@H]1COC3=CC=CC(=C3)C)C=CS2 [RU-SKI 43] + CC1(C)CCC(c2ccc(Cl)cc2)=C(CN2CCN(c3ccc(C(=O)NS(=O)(=O)c4ccc(N[C@H](CCN5CCOCC5)CSc5ccccc5)c(S(=O)(=O)C(F)(F)F)c4)cc3)CC2)C1 [Navitoclax] (partner 0.5 µM)
In short: as §1

Irinotecan + Luminespib = compound: CCc1c2c(nc3ccc(OC(=O)N4CCC(N5CCCCC5)CC4)cc13)-c1cc3c(c(=O)n1C2)COC(=O)[C@]3(O)CC [Irinotecan] + CCNC(=O)c1noc(-c2cc(C(C)C)c(O)cc2O)c1-c1ccc(CN2CCOCC2)cc1 [Luminespib] (partner 0.01 µM)
In short: as §1

| Cell Line | relative viability (RU-SKI 43 + Phenformin; first compound 0.1 µM) | relative viability (RU-SKI 43 + Phenformin; first compound 0.3162 µM) | relative viability (RU-SKI 43 + Phenformin; first compound 1 µM) | relative viability (RU-SKI 43 + Phenformin; first compound 3.162 µM) | relative viability (RU-SKI 43 + Phenformin; first compound 10 µM) | relative viability (Irinotecan + Trametinib; first compound 0.6325 µM) | relative viability (Irinotecan + Trametinib; first compound 2 µM) | relative viability (Irinotecan + Trametinib; first compound 6.325 µM) | relative viability (Irinotecan + Trametinib; first compound 20 µM) | relative viability (RU-SKI 43 + Navitoclax; first compound 0.1 µM) | relative viability (RU-SKI 43 + Navitoclax; first compound 0.3162 µM) | relative viability (RU-SKI 43 + Navitoclax; first compound 1 µM) | relative viability (RU-SKI 43 + Navitoclax; first compound 3.162 µM) | relative viability (RU-SKI 43 + Navitoclax; first compound 10 µM) | relative viability (Irinotecan + Luminespib; first compound 0.6325 µM) | relative viability (Irinotecan + Luminespib; first compound 2 µM) | relative viability (Irinotecan + Luminespib; first compound 6.325 µM) | relative viability (Irinotecan + Luminespib; first compound 20 µM) |
| --- | --- | --- | --- | --- | --- | --- | --- | --- | --- | --- | --- | --- | --- | --- | --- | --- | --- | --- |
| SK-MES-1 | 0.645 | 0.778 | 0.725 | 0.716 | 0.63 | 0.528 | 0.557 | 0.311 | 0.173 | 1.31 | 1.55 | 1.33 | 1.25 | 1.12 | 0.818 | 0.521 | 0.324 | 0.234 |
| HOP-62 | 0.688 | 0.547 | 0.779 | 0.789 | 0.714 | 0.311 | 0.23 | 0.23 | 0.228 | 1.22 | 1.26 | 1.21 | 1.14 | 1.06 | 0.254 | 0.361 | 0.203 | 0.21 |
| NCI-H520 | 0.673 | 0.629 | 0.519 | 0.581 | 0.561 | 0.52 | 0.397 | 0.264 | 0.172 | 1.08 | 1.42 | 1.28 | 1.08 | 1.03 | 0.249 | 0.257 | 0.256 | 0.303 |
| EBC-1 | – | – | – | – | – | – | – | – | – | 0.358 | 0.294 | 0.401 | 0.366 | 0.223 | – | – | – | – |
| BEN | 0.26 | 0.283 | 0.238 | 0.262 | 0.267 | 1.2 | 0.769 | 0.503 | 0.556 | 0.0754 | 0.0554 | 0.064 | 0.0685 | 0.0709 | 0.231 | 0.374 | 0.176 | 0.294 |
| NCI-H322M | 0.718 | 0.758 | 0.832 | 0.833 | 0.771 | 0.508 | 0.616 | 0.481 | 0.304 | 1.15 | 1.4 | 1.23 | 1.39 | 1.15 | 0.844 | 0.777 | 0.529 | 0.181 |
| LU99A | 0.862 | 0.955 | 0.863 | 0.871 | 0.654 | 0.184 | 0.182 | 0.164 | 0.156 | 0.779 | 0.793 | 0.87 | 0.885 | 0.835 | 0.174 | 0.184 | 0.206 | 0.207 |
| NCI-H2405 | 0.37 | 0.371 | 0.413 | 0.379 | 0.358 | – | 0.734 | 0.358 | 0.179 | 0.797 | 0.867 | 0.627 | 0.74 | 0.711 | – | 0.606 | 0.312 | 0.262 |
| NCI-H1395 | 0.485 | 0.453 | 0.476 | 0.421 | 0.433 | – | 0.812 | 0.549 | 0.375 | 1.15 | 1.15 | 1.32 | 1.14 | 1.02 | 0.76 | 0.651 | 0.388 | 0.534 |
| HCC-44 | 0.247 | 0.261 | 0.409 | 0.18 | 0.277 | 1.01 | 0.868 | 0.561 | 0.421 | 0.863 | 1.13 | 0.968 | 0.986 | 0.902 | – | 0.456 | 0.215 | 0.225 |
| NCI-H441 | 0.966 | 1.02 | 0.836 | 0.844 | 0.729 | 0.405 | 0.426 | 0.141 | 0.198 | 0.677 | 0.498 | 0.616 | 0.611 | 0.542 | 0.231 | 0.332 | 0.304 | 0.309 |
| Calu-6 | – | – | – | – | – | – | – | – | – | 0.848 | 0.977 | 0.72 | 0.955 | 0.691 | – | – | – | – |
| CAL-12T | 0.645 | 0.65 | 0.616 | 0.596 | 0.589 | 0.309 | 0.292 | 0.299 | 0.274 | 1.2 | 1.53 | 1.54 | 1.13 | 1.14 | – | 0.695 | 0.2 | 0.253 |
| HCC-78 | 0.735 | 0.735 | 0.933 | 0.739 | 0.692 | 0.882 | 0.716 | 0.31 | 0.262 | 0.758 | 0.96 | 1.03 | 0.834 | 0.772 | – | – | – | – |
| NCI-H2170 | 0.462 | 0.417 | 0.395 | 0.431 | 0.403 | 0.798 | 0.309 | 0.119 | 0.111 | 0.499 | 0.64 | 0.643 | 0.625 | 0.58 | 0.601 | 0.498 | 0.168 | 0.188 |
| NCI-H1623 | 0.629 | 0.564 | 0.619 | 0.583 | 0.53 | – | – | – | – | – | – | – | – | – | 0.412 | 0.312 | 0.279 | 0.239 |
| NCI-H23 | 0.772 | 0.849 | 0.836 | 0.857 | 0.698 | 0.35 | 0.289 | 0.187 | 0.191 | 0.615 | 0.9 | 0.99 | 0.998 | 0.687 | 0.228 | 0.394 | 0.332 | 0.241 |
| COR-L 105 | 0.486 | 0.519 | 0.555 | 0.439 | 0.515 | 0.432 | 0.425 | 0.474 | 0.401 | 0.909 | 0.61 | 0.648 | 0.858 | 0.595 | 0.578 | 0.677 | 0.421 | 0.411 |
| LOU-NH91 | 0.705 | 0.673 | 0.733 | 0.715 | 0.666 | 0.774 | 0.768 | 0.466 | 0.29 | 0.679 | 0.746 | 0.741 | 0.714 | 0.683 | 0.371 | 0.323 | 0.301 | 0.28 |
